Where “and” joins values, the source holds several entries; their conditions need not be identical. Identical values can stand only once. Inconclusive results and toxic doses are left out.
Test system: BDF1 mice, B16 melanoma ip, median survival T/C
Test: NCI In Vivo Anticancer Drug Screen. Data for tumor model B16 Melanoma (intraperitoneal) in B6D2F1 (BDF1) mice
Conditions: endpoint: median survival time, higher = longer survival
Procedure, shortened: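 Transplantable tumor model; survival or tumor size measured; reported as T/C, treated over vehicle control.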

[1] = dose: 100.0 mg/kg/injection, schedule: Q01DX009 (ip), vehicle: saline with Tween-80
[2] = dose: 200.0 mg/kg/injection, schedule: Q01DX009 (ip), vehicle: saline with Tween-80
[3] = dose: 75.0 mg/kg/injection, schedule: Q01DX009 (ip), vehicle: Klucel (hydroxypropylcellulose) (HPC)
[4] = dose: 150.0 mg/kg/injection, schedule: Q01DX009 (ip), vehicle: Klucel (hydroxypropylcellulose) (HPC)
[5] = dose: 300.0 mg/kg/injection, schedule: Q01DX009 (ip), vehicle: Klucel (hydroxypropylcellulose) (HPC)
[6] = dose: 25.0 mg/kg/injection, schedule: Q01DX009 (ip), vehicle: Klucel (hydroxypropylcellulose) (HPC)
[7] = dose: 50.0 mg/kg/injection, schedule: Q01DX009 (ip), vehicle: Klucel (hydroxypropylcellulose) (HPC)
[8] = dose: 100.0 mg/kg/injection, schedule: Q01DX009 (ip), vehicle: Klucel (hydroxypropylcellulose) (HPC)
[9] = dose: 25.0 mg/kg/injection, schedule: Q01DX009 (ip), vehicle: saline with Tween-80
[10] = dose: 50.0 mg/kg/injection, schedule: Q01DX009 (ip), vehicle: saline with Tween-80
[11] = dose: 200.0 mg/kg/injection, schedule: Q01DX009 (ip), vehicle: Klucel (hydroxypropylcellulose) (HPC)
[12] = dose: 400.0 mg/kg/injection, schedule: Q01DX009 (ip), vehicle: Klucel (hydroxypropylcellulose) (HPC)
[13] = dose: 400.0 mg/kg/injection, schedule: Q01DX009 (ip), vehicle: saline with Tween-80

## NC(=S)N/N=C\c1nccc2c(C(F)(F)F)cccc12
dose: 1.5 mg/kg/injection, schedule: Q04DX003 (ip), vehicle: saline with Tween-80
  T/C: 105 % of control
dose: 3.0 mg/kg/injection, schedule: Q04DX003 (ip), vehicle: saline with Tween-80
  T/C: 110 % of control
dose: 6.0 mg/kg/injection, schedule: Q04DX003 (ip), vehicle: saline with Tween-80
  T/C: 100 % of control
dose: 12.0 mg/kg/injection, schedule: Q04DX003 (ip), vehicle: saline with Tween-80
  T/C: 102 % of control

## c1ccc([Te][Te]c2ccccc2)cc1
dose: 3.0 mg/kg/injection, schedule: Q01DX009 (ip), vehicle: saline with Tween-80
  T/C: 123 % of control
dose: 6.0 mg/kg/injection, schedule: Q01DX009 (ip), vehicle: saline with Tween-80
  T/C: 123 % of control

## O=C(Nc1ccccc1C(F)(F)F)c1ccc(Cl)cc1Cl
[1]
  T/C: 97 % of control
[2]
  T/C: 92 % of control

## CCc1cccc2ccccc12
[3]
  T/C: 118 % of control
[4]
  T/C: 121 % of control
[5]
  T/C: 106 % of control

## C=CCOc1cccc(OCC=C)c1C
[1]
  T/C: 106 % of control
[2]
  T/C: 97 % of control

## Cc1ccc(NS(=O)(=O)c2ccccc2)c(C)c1
[3]
  T/C: 86 % of control
[4]
  T/C: 87 % of control
[5]
  T/C: 92 % of control

## O=[N+]([O-])c1cc([N+](=O)[O-])c(Br)cc1Cl
dose: 2.5 mg/kg/injection, schedule: Q01DX009 (ip), vehicle: saline with Tween-80
  T/C: 92 % of control
dose: 5.0 mg/kg/injection, schedule: Q01DX009 (ip), vehicle: saline with Tween-80
  T/C: 98 % of control
dose: 10.0 mg/kg/injection, schedule: Q01DX009 (ip), vehicle: saline with Tween-80
  T/C: 87 % of control
dose: 20.0 mg/kg/injection, schedule: Q01DX009 (ip), vehicle: Klucel (hydroxypropylcellulose) (HPC)
  T/C: 94 % of control

## O=[N+]([O-])c1ccc(Oc2cc(Cl)c(Cl)cc2Cl)c([N+](=O)[O-])c1
[6]
  T/C: 107 % of control
[7]
  T/C: 106 % of control
[8]
  T/C: 99 % of control

## Nc1ccn(C2CC(O)C(CO)O2)c(=O)n1 (centres undefined)
dose: 9.38 mg/kg/injection, schedule: Q01DX009 (ip), vehicle: water
  T/C: 105 % of control
dose: 18.75 mg/kg/injection, schedule: Q01DX009 (ip), vehicle: water
  T/C: 101 % of control
dose: 37.5 mg/kg/injection, schedule: Q01DX009 (ip), vehicle: water
  T/C: 100 % of control
dose: 75.0 mg/kg/injection, schedule: Q01DX009 (ip), vehicle: water
  T/C: 99 % of control
dose: 150.0 mg/kg/injection, schedule: Q01DX009 (ip), vehicle: water
  T/C: 109 % of control

## COc1ccc(S(=O)(=O)N=N/C=C2\C=CC=CN2O)cc1OC
dose: 6.25 mg/kg/injection, schedule: Q01DX009 (ip), vehicle: saline with Tween-80
  T/C: 99 % of control
dose: 12.5 mg/kg/injection, schedule: Q01DX009 (ip), vehicle: saline with Tween-80
  T/C: 100 % of control
[9]
  T/C: 112 % of control
[10]
  T/C: 112 % of control
[2]
  T/C: 161 % of control

## Cc1ccc(CCCC(=O)O)c(C)c1
[8]
  T/C: 104 % of control
[11]
  T/C: 96 % of control
[12]
  T/C: 97 % of control

## COc1ccc(C(Nc2ccccc2)C(=O)c2ccccc2)cc1 (centres undefined)
dose: 3.12 mg/kg/injection, schedule: Q01DX009 (ip), vehicle: Klucel (hydroxypropylcellulose) (HPC)
  T/C: 90 % of control
dose: 6.25 mg/kg/injection, schedule: Q01DX009 (ip), vehicle: Klucel (hydroxypropylcellulose) (HPC)
  T/C: 106 % of control
dose: 12.5 mg/kg/injection, schedule: Q01DX009 (ip), vehicle: Klucel (hydroxypropylcellulose) (HPC)
  T/C: 89 % of control
[6]
  T/C: 89 % of control and 90 % of control

## O=C(OC1C=CC2CCC1C2)c1ccc([N+](=O)[O-])cc1 (centres undefined)
[10]
  T/C: 91 % of control
[1]
  T/C: 96 % of control
[2]
  T/C: 93 % of control

## O=[N+]([O-])c1ccc2[nH]c(=S)sc2c1
[6]
  T/C: 97 % of control
[7]
  T/C: 100 % of control

## C#CC(C)OCC1CNC(=S)O1 (centres undefined)
[9]
  T/C: 100 % of control
[10]
  T/C: 89 % of control
[1]
  T/C: 97 % of control
[13]
  T/C: 91 % of control

## O=C(O)c1ccccc1C(=O)Nc1ccc(Cl)cc1
[1]
  T/C: 105 % of control
[2]
  T/C: 94 % of control

## CC1=C/C(O)CC(=O)Cc2nc(co2)C(=O)N2CCC=C2C(=O)OC(C(C)C)C(C)/C=C\C(=O)NC/C=C\1 (centres undefined)
[6]
  T/C: 91 % of control
[7]
  T/C: 102 % of control
[8]
  T/C: 118 % of control
[11]
  T/C: 123 % of control
dose: 0.5 micrograms/kg/injection, schedule: Q01DX009 (ip), vehicle: saline
  T/C: 103 % of control
dose: 1.0 micrograms/kg/injection, schedule: Q01DX009 (ip), vehicle: saline
  T/C: 102 % of control
dose: 2.0 micrograms/kg/injection, schedule: Q01DX009 (ip), vehicle: saline
  T/C: 107 % of control

## C/C(=C\c1ccccc1Cl)[N+](=O)[O-]
dose: 37.5 mg/kg/injection, schedule: Q01DX009 (ip), vehicle: Klucel (hydroxypropylcellulose) (HPC)
  T/C: 96 % of control
[3]
  T/C: 96 % of control

## CC(=O)OC(OC(C)=O)c1ccc([N+](=O)[O-])cc1
[1]
  T/C: 93 % of control
[2]
  T/C: 95 % of control
[13]
  T/C: 86 % of control

## O=C(O)/C(Cl)=C(/Cl)C(Cl)=C(Cl)Cl
[9]
  T/C: 95 % of control

## O/N=C1\CCCC\C1=N/O.O/N=C1\CCCC\C1=N/O.[Pd]
dose: 25.0 mg/kg/injection, schedule: Q04DX003 (ip), vehicle: other
  T/C: 101 % of control
dose: 50.0 mg/kg/injection, schedule: Q04DX003 (ip), vehicle: other
  T/C: 91 % of control
dose: 100.0 mg/kg/injection, schedule: Q04DX003 (ip), vehicle: other
  T/C: 93 % of control

## COc1ccccc1NC(=O)c1ccccc1
[1]
  T/C: 97 % of control
[2]
  T/C: 107 % of control
[13]
  T/C: 97 % of control

## CCOc1ccccc1NC(=O)c1ccccc1Cl
[8]
  T/C: 106 % of control
[11]
  T/C: 106 % of control
[12]
  T/C: 93 % of control

## CCN(CC)CCCC#CCN1CCCC1
[6]
  T/C: 100 % of control
[7]
  T/C: 93 % of control
[8]
  T/C: 93 % of control

## COc1ccc(N2CSC(=S)N(c3ccc(OC)cc3)C2)cc1
dose: 8.0 mg/kg/injection, schedule: Q01DX009 (ip), vehicle: saline with Tween-80
  T/C: 97 % of control
dose: 12.0 mg/kg/injection, schedule: Q01DX009 (ip), vehicle: saline with Tween-80
  T/C: 90 % of control
dose: 18.0 mg/kg/injection, schedule: Q01DX009 (ip), vehicle: saline with Tween-80
  T/C: 90 % of control
[6]
  T/C: 102 % of control
[9]
  T/C: 112 % of control
[7]
  T/C: 94 % of control
[10]
  T/C: 115 % of control
[8]
  T/C: 114 % of control

## O=C1C(Br)=C(Br)C(=O)C1(Br)Br
dose: 1.56 mg/kg/injection, schedule: Q01DX009 (ip), vehicle: saline
  T/C: 100 % of control
dose: 3.13 mg/kg/injection, schedule: Q01DX009 (ip), vehicle: saline
  T/C: 105 % of control
dose: 3.13 mg/kg/injection, schedule: Q04DX003 (ip), vehicle: saline with Tween-80
  T/C: 94 % of control
dose: 6.25 mg/kg/injection, schedule: Q01DX009 (ip), vehicle: saline
  T/C: 102 % of control
dose: 6.25 mg/kg/injection, schedule: Q04DX003 (ip), vehicle: saline with Tween-80
  T/C: 89 % of control

## COc1ccc(C2CCC(=O)CC2C(=O)O)cc1 (centres undefined)
dose: 100.0 mg/kg/injection, schedule: Q04DX003 (ip), vehicle: Klucel (hydroxypropylcellulose) (HPC)
  T/C: 94 % of control
dose: 400.0 mg/kg/injection, schedule: Q04DX003 (ip), vehicle: Klucel (hydroxypropylcellulose) (HPC)
  T/C: 100 % of control

## Cl[C](Cl)(Cl)[Hg][c]1ccccc1
dose: 0.19 mg/kg/injection, schedule: Q01DX009 (ip), vehicle: saline
  T/C: 91 % of control
dose: 0.38 mg/kg/injection, schedule: Q01DX009 (ip), vehicle: saline
  T/C: 92 % of control
dose: 1.5 mg/kg/injection, schedule: Q01DX009 (ip), vehicle: saline
  T/C: 89 % of control

## CCN(CC)CCCNC(=S)NC(C)(C)CC(C)=O
dose: 75.0 mg/kg/injection, schedule: Q04DX003 (ip), vehicle: Klucel (hydroxypropylcellulose) (HPC)
  T/C: 95 % of control
dose: 150.0 mg/kg/injection, schedule: Q04DX003 (ip), vehicle: Klucel (hydroxypropylcellulose) (HPC)
  T/C: 92 % of control
dose: 300.0 mg/kg/injection, schedule: Q04DX003 (ip), vehicle: Klucel (hydroxypropylcellulose) (HPC)
  T/C: 95 % of control

## Cc1ccc(NC(=O)Nc2ccc(Cl)c(Cl)c2)cc1Cl
[6]
  T/C: 96 % of control
[7]
  T/C: 105 % of control
